Test [1] has as its target T1, human GPR40 (Homo sapiens, UniProt O14842). Nature of the test: FDSS-based intracellular calcium assay (Human GPR40 in vitro assay). Type of test: cell-based. The arrangement: 3xFLAG; expressed in transfected cells. To be noted: intracellular Ca2+ response, cells expressing GPR40; read-out: hGPR40 EC50. Here is the method:
FDSS-based Intracellular Calcium Assay
Compounds are dissolved in DMSO and diluted to desired concentrations with assay buffer and added to the cells as 3× solution (20 μL per well). Run fluorescence/luminescence reader FDSS (Hamamatsu) to read intracellular Ca^2+ response.
(In general: Calcium flux is commonly read through the fluorescence of an indicator in the cells.)

The target in test [2] is T1, human GPR40. As to the kind of experiment: GPR40 IP-One HTRF assay in HEK293/GPR40 inducible cell lines. Type of test: cell-based. To be noted: HEK293 cells, tetracycline-inducible human GPR40, IP-One HTRF; read-out: hGPR40 IP1 EC50. The arrangement: expressed in transfected cells. Here is the method:
GPR40 IP-One HTRF Assays in HEK293/GPR40 Inducible Cell Lines
Human, mouse and rat GPR40-mediated intracellular IP-One HTRF assays were established using human embryonic kidney HEK293 cells stably transfected with a tetracycline-inducible human, mouse or rat GPR40 receptor. Cells were routinely cultured in growth medium containing DMEM (Gibco Cat. #:12430-047), 10% qualified FBS (Sigma, Cat. #: F2442), 200 μg/mL hygromycin (Invitrogen, Cat. #: 16087-010) and 1.5 μg/mL blasticidin (Invitrogen, Cat. # R210-01). About 12-15 million cells were passed into a T175 tissue culture flask (BD Falcon 353112) with growth medium and incubated for 16-18 hours (overnight) at 370 C with 5% CO2. The next day, assay medium was exchanged with growth medium containing 1000 ng/mL of tetracycline (Fluka Analytical, Cat. #87128) to induce GPR40 expression for 18-24 hours at […] incubator with 5% CO2. After induction, the cells were washed with PBS (Gibco, Cat. #14190-036) and detached with Cell Stripper (Cellgro, Cat. #25-056-CL). 10-20 mL growth medium were added to the flask and cells were collected in 50 mL tubes (Falcon, Cat.#:352098) and spun at 1000 RPM for 5 minutes. Culture medium was aspirated and the cells were resuspended in 10 mL of 1×IP-One Stimulation Buffer from the Cisbio IP-One kit (Cisbio, Cat. #62IPAPEJ). The cells were diluted to 1.4×10^6 cells/mL in Stimulation Buffer.
Test compounds were 3-fold, 11-point serially diluted in DMSO in a REMP assay plate (Matrix Cat. #: 4307) by BioCel (Agilent). The compounds were transferred into an Echo plate (LABCYTE, Cat. #: LP-0200) and 20 nL of diluted compounds were transferred to an assay plate (proxi-plate from Perkin Elmer, Cat. #6008289) by Echo acoustic nano dispenser (LABCYTE, model ECHO550). 14 μL of the diluted cells were then added to the assay plate by Thermo (SN 836 330) Combi Drop and incubated at room temperature for 45 minutes. Then 3 μL of IP1 coupled to dye D2 from the Cisbio IP-One kit were added to the assay plate followed by 3 μL of Lumi4TM-Tb cryptate K from the kit. The plate was further incubated at room for 1 hour before reading on the Envision (Perkin Elmer Model2101) with an HTRF protocol. Activation data for the test compound over a range of concentrations was plotted as percentage activation of the test compound (100%=maximum response). After correcting for background [(sample read-mean of low control)/(mean of high control−mean of low control)] (low control is DMSO without any compound), EC50 values were determined. The EC50 is defined as the concentration of test compound which produces 50% of the maximal response and was quantified using the 4 parameter logistic equation to fit the data.

T1 sequence (O14842 whole entry): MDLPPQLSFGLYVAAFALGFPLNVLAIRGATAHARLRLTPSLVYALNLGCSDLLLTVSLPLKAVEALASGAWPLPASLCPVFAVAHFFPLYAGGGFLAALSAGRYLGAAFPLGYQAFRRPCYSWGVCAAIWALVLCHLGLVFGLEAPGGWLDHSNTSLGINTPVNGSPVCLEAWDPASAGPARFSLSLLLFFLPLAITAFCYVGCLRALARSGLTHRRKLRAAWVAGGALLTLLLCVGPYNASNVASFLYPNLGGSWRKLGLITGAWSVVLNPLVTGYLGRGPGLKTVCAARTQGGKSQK

Broadly, the EC50 is the concentration needed to bring the measured effect to its halfway point. Turning to `CCOc1ccc(F)c(N2CCC(Oc3ccc(N4N=C(C(F)(F)F)[C@@H](C)[C@@H]4CC(=O)O)cc3)C(Cc3ccccc3)C2)c1` (single isomer, unassigned) [Example 28 (Isomer 2)], the values for the EC50 in test [1] and in test [2] were 1320 nM and 230 nM, respectively. As to `CCOc1ccc(F)c(N2CCC(Oc3ccc(N4N=C(C(F)(F)F)[C@@H](C)[C@@H]4CC(=O)O)cc3)C(OC)C2)c1` (single isomer, unassigned) [Example 31 (Isomer 1)], the EC50 was found to be 473 nM in test [1] and 13 nM in test [2].

Consider `COc1cc(N2CCC(Oc3ccc(N4N=C(C(F)(F)F)[C@@H](C)[C@@H]4CC(=O)O)cn3)C(C)C2)c(Cl)cn1` (single isomer, unassigned) [Example 103 Isomer 2], for which the EC50 in test [1] was found to be 96 nM; in test [2], 43 nM. On to `CCOc1ccc(F)c(N2CC[C@@H](Oc3ccc(N4N=C(c5ccc(S(C)(=O)=O)cc5)[C@@H](C)[C@@H]4CC(=O)O)cc3)[C@H](C)C2)c1` [Example 98, 2-((4S,5S)-1-(4-(((3R,4R)-1-(5-ethoxy-2-fluorophenyl)-3-methylpiperidin-4-yl)oxy)phenyl)-4-methyl-3-(4-(methylsulfonyl)phenyl)-4,5-dihydro-1H-pyrazol-5-yl)acetic acid], for which the results for the EC50 in test [1] and in test [2] were 83 nM and 25 nM, respectively. For `COc1cccc(N2CCC(Cc3ccc(N4N=C(c5ccc(F)cc5)[C@@H](C)[C@@H]4CC(=O)O)cc3)CC2)c1` [Example 101, 2-((4S,5S)-3-(4-fluorophenyl)-1-(4-((1-(3-methoxyphenyl)piperidin-4-yl)methyl)phenyl)-4-methyl-4,5-dihydro-1H-pyrazol-5-yl)acetic acid], the EC50 in test [1] was found to be 281 nM; in test [2] it was 40 nM. Take `C[C@@H]1C(C(F)(F)F)=NN(c2ccc(OC3CCN(c4cc(O)ccc4F)CC3)cc2)[C@H]1CC(=O)O` [Example 102, 2-((4S,5S)-1-(4-((1-(2-fluoro-5-hydroxyphenyl)piperidin-4-yl)oxy)phenyl)-4-methyl-3-(trifluoromethyl)-4,5-dihydro-1H-pyrazol-5-yl)acetic acid]: the EC50 in test [2] came to 131 nM. As to `COc1cc(N2CC[C@@H](Oc3ccc(N4N=C(C(F)(F)F)[C@@H](C)[C@@H]4CC(=O)O)cc3)[C@H](CC#N)C2)c(Cl)cn1` [Example B2, 2-((4S,5S)-1-(4-(((3R,4R)-1-(5-chloro-2-methoxypyridin-4-yl)-3-(cyanomethyl)piperidin-4-yl)oxy)phenyl)-4-methyl-3-(trifluoromethyl)-4,5-dihydro-1H-pyrazol-5-yl)acetic acid], the EC50 in test [1] turned out to be 586 nM; in test [2], 362 nM.

The values above are taken from patent US9604964B2, “Dihydropyrazole GPR40 modulators” (BRISTOL-MYERS SQUIBB COMPANY, priority 2012, dated 2017).
